These results are taken from patent US4877893A, “Process for the preparation of 2-(O-alkyl)-2-thio-1,3,2-oxathiophospholanes” (priority 1987, dated 1989).

Holding throughout (experiment): Fungicidal effect on infected agar nutrient media, colony diameter
Format in all cases: cell-based

For assay [1], the system named is Sclerotinia sclerotinia. The note with it: 3rd day after treatment, untreated control 41.7. The procedure:
Agar nutrient media (Diameter 70 MM, thickness 10 mm) infected by Sclerotonia sclerotinia suspension are treated with 20 EC formulations prepared according to Example 27 and comprising 1, 10, 100 and 1000 ppm, respectively of the active ingredient of the Formula I. The fungicidal effect of the compositions is evaluated on the 3rd day after treatment by measuring the diameter of the Fungi colonies.

In assay [2] the test system is Penicillium cyclopium. The settings on record: 7th day after treatment, untreated 26.5. Put shortly: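 Agar media (70 mm diameter, 10 mm thick) infected with Penicillium cyclopium were treated with EC formulations at 1, 10, 100 and 1000 ppm active ingredient. Fungal colony diameter was measured on day 7 after treatment.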
Assay [3] has as its system Alternaria tenuis. The settings on record: 5th day after treatment, untreated control 36.8. Put shortly: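 Agar media (70 mm diameter, 10 mm thick) infected with Alternaria tenuis, treated with EC formulations at 1, 10, 100 and 1000 ppm active ingredient. Fungicidal effect read on day 5 after treatment as fungal colony diameter.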

As for `CC(C)C(C)OP1(=S)OC(C)C(C)S1` (stereo not drawn) [Compound 54, 2-(0-1',2'-dimethyl-n-propyl)-2-thio-4,5-dimethyl1,3,2-oxathiophospholane], the “Diameter of colony (mm)” value in assay [1] (1 ppm) is given as 34.9 mm; in assay [1] (10 ppm), 29.0 mm; in assay [1] (100 ppm), 4.1 mm; in assay [1] (1000 ppm) it was 0 mm; in assay [2] (1 ppm), 25.2 mm; in assay [2] (10 ppm), 18.8 mm. Besides, the “Diameter of colony (mm)” value in assay [2] (100 ppm) is reported as 7.9 mm; in assay [2] (1000 ppm), 0 mm; in assay [3] (1 ppm), 34.7 mm; in assay [3] (10 ppm), 24.6 mm; in assay [3] (100 ppm) it was 7.2 mm; in assay [3] (1000 ppm), 0 mm.

Regarding `CCOP1(=S)OCCS1` (stereo not drawn) [Compound 55], the “Diameter of colony (mm)” value in assay [1] (1 ppm) was 33.1 mm; in assay [1] (10 ppm), 28.2 mm; in assay [1] (100 ppm), 0 mm; in assay [1] (1000 ppm), 0 mm; in assay [2] (1 ppm) it was 21.9 mm; in assay [2] (10 ppm), 18.1 mm. Also, the “Diameter of colony (mm)” value in assay [2] (100 ppm) stood at 8.0 mm; in assay [2] (1000 ppm) it was 0 mm; in assay [3] (1 ppm), 32.4 mm; in assay [3] (10 ppm), 23.5 mm; in assay [3] (100 ppm), 5.2 mm; in assay [3] (1000 ppm), 0 mm.

As to `S=P1(OCCS)OCCS1` (stereo not drawn) [Compound 56], the “Diameter of colony (mm)” value in assay [1] (1 ppm) was 40.2 mm; in assay [1] (10 ppm) it was 31.5 mm; in assay [1] (100 ppm), 1.2 mm; in assay [1] (1000 ppm) it was 0 mm; in assay [2] (1 ppm), 24.6 mm; in assay [2] (10 ppm) it was 18.1 mm. In addition, the “Diameter of colony (mm)” value is listed as 8.8 mm in assay [2] (100 ppm); 0 mm in assay [2] (1000 ppm); 32.8 mm in assay [3] (1 ppm); 22.1 mm in assay [3] (10 ppm); 6.0 mm in assay [3] (100 ppm); 0 mm in assay [3] (1000 ppm).

Turning to `CC(C)OP1(=S)OCCS1` (stereo not drawn) [Compound 57], the “Diameter of colony (mm)” value in assay [1] (1 ppm) is given as 37.8 mm; in assay [1] (10 ppm) it was 25.9 mm; in assay [1] (100 ppm) it was 0 mm; in assay [1] (1000 ppm) it was 0 mm; in assay [2] (1 ppm) it was 18.7 mm; in assay [2] (10 ppm), 20.0 mm. Moreover, the “Diameter of colony (mm)” value in assay [2] (100 ppm) came out at 6.2 mm; in assay [2] (1000 ppm), 0 mm; in assay [3] (1 ppm) it was 31.7 mm; in assay [3] (10 ppm), 26.0 mm; in assay [3] (100 ppm) it was 7.1 mm; in assay [3] (1000 ppm), 0 mm.

Consider `CCCCOP1(=S)OCCS1` (stereo not drawn) [Compound 58], for which the “Diameter of colony (mm)” value in assay [1] (1 ppm) was found to be 36.2 mm; in assay [1] (10 ppm) it was 29.1 mm; in assay [1] (100 ppm), 1.9 mm; in assay [1] (1000 ppm) it was 0 mm; in assay [2] (1 ppm) it was 21.9 mm; in assay [2] (10 ppm) it was 16.1 mm. Also, the “Diameter of colony (mm)” value in assay [2] (100 ppm) is given as 8.4 mm; in assay [2] (1000 ppm), 0 mm; in assay [3] (1 ppm), 32.7 mm; in assay [3] (10 ppm), 23.9 mm; in assay [3] (100 ppm), 7.5 mm; in assay [3] (1000 ppm), 0 mm.

Turning to `CCCCOP1(=S)OCCS1` (stereo not drawn) [Compound 59, 2-(0-n-butyl)-2-thio-1,3,2-oxathiophospholane], the “Diameter of colony (mm)” value amounted to 34.3 mm in assay [1] (1 ppm); 28.5 mm in assay [1] (10 ppm); 4.0 mm in assay [1] (100 ppm); 0 mm in assay [1] (1000 ppm); 25.0 mm in assay [2] (1 ppm); 18.7 mm in assay [2] (10 ppm). The “Diameter of colony (mm)” value is 7.6 mm in assay [2] (100 ppm); 0 mm in assay [2] (1000 ppm); 34.0 mm in assay [3] (1 ppm); 24.1 mm in assay [3] (10 ppm); 5.6 mm in assay [3] (100 ppm); 0 mm in assay [3] (1000 ppm).

In the case of `CCCCOP1(=S)OC(C)CS1` (stereo not drawn) [Compound 60, 2-(0-n-butyl)-2-thio-5-methyl-1,3,2-oxathiophospholane], the “Diameter of colony (mm)” value in assay [1] (1 ppm) is recorded as 33.7 mm; in assay [1] (10 ppm) it was 30.0 mm; in assay [1] (100 ppm), 3.8 mm; in assay [1] (1000 ppm) it was 0 mm; in assay [2] (1 ppm), 23.6 mm; in assay [2] (10 ppm) it was 19.9 mm. The “Diameter of colony (mm)” value is on record as 8.2 mm in assay [2] (100 ppm); 0 mm in assay [2] (1000 ppm); 33.3 mm in assay [3] (1 ppm); 25.5 mm in assay [3] (10 ppm); 6.8 mm in assay [3] (100 ppm); 0 mm in assay [3] (1000 ppm).

Turning to `CCCCOP1(=S)OCC(C)S1` (stereo not drawn) [Compound 61, 2-(0-n-butyl)-2-thio-4-methyl-1,3,2-oxathiophospholane], the “Diameter of colony (mm)” value in assay [1] (1 ppm) amounted to 35.6 mm; in assay [1] (10 ppm), 28.9 mm; in assay [1] (100 ppm), 2.7 mm; in assay [1] (1000 ppm), 0 mm; in assay [2] (1 ppm) it was 24.0 mm; in assay [2] (10 ppm), 19.0 mm. The “Diameter of colony (mm)” value in assay [2] (100 ppm) came out at 8.3 mm; in assay [2] (1000 ppm), 0 mm; in assay [3] (1 ppm), 36.2 mm; in assay [3] (10 ppm), 24.3 mm; in assay [3] (100 ppm), 6.2 mm; in assay [3] (1000 ppm), 0 mm.

Take `CCCC(C)OP1(=S)OCCS1` (stereo not drawn) [Compound 62, 2-(0-1'-methyl-n-butyl)-2-thio-1,3,2-oxathiophospholane]: the “Diameter of colony (mm)” value is 37.0 mm in assay [1] (1 ppm); 30.2 mm in assay [1] (10 ppm); 3.9 mm in assay [1] (100 ppm); 0 mm in assay [1] (1000 ppm); 26.1 mm in assay [2] (1 ppm); 20.2 mm in assay [2] (10 ppm). Further, the “Diameter of colony (mm)” value worked out at 7.4 mm in assay [2] (100 ppm); 0 mm in assay [2] (1000 ppm); 34.1 mm in assay [3] (1 ppm); 25.7 mm in assay [3] (10 ppm); 6.9 mm in assay [3] (100 ppm); 0 mm in assay [3] (1000 ppm).

For the compound `CCCCOP1(=S)OC(C)C(C)S1` (stereo not drawn) [Compound 63, 2-(0-n-butyl)-2-thio-4,5-dimethyl-1,3,2-oxathiophospholane], the “Diameter of colony (mm)” value in assay [1] (1 ppm) is on record as 34.2 mm; in assay [1] (10 ppm) it was 29.9 mm; in assay [1] (100 ppm), 3.1 mm; in assay [1] (1000 ppm), 0 mm; in assay [2] (1 ppm), 24.8 mm; in assay [2] (10 ppm), 18.5 mm. Besides, the “Diameter of colony (mm)” value is 8.5 mm in assay [2] (100 ppm); 0 mm in assay [2] (1000 ppm); 35.0 mm in assay [3] (1 ppm); 24.2 mm in assay [3] (10 ppm); 6.7 mm in assay [3] (100 ppm); 0 mm in assay [3] (1000 ppm).
